Laboratory results: the NIST ThermoML archive (doi:10.1021/acs.jced.6b00700)
Numbers after ± are expanded uncertainties.

What was measured:
[1] = refractive index (Na D-line) (dimensionless); xn = mol fraction of the nth substance listed; conditions: 293 K, 96.15 kPa, Liquid, Standard Abbe refractometry
[2] = Liquid, Ebulliometric method (Recirculating still)
[3] = refractive index (Na D-line) (dimensionless); conditions: 293 K; 96.15 kPa; Liquid; Standard Abbe refractometry

`CN(C)C=O` [dimethylformamide] + Nc1ccccc1 showed a refractive index ([1]; x1 = 1) of 1.4318 ± 0.004.
With `COc1ccccc1` [anisole] + CC(C)=O the refractive index ([1]; x2 = 0) was 1.5175 ± 0.004, the refractive index ([1]; x2 = 0.0888) was 1.5095 ± 0.004 and the refractive index ([1]; x2 = 0.1723) was 1.4998 ± 0.004. For the same molecule, the refractive index ([1]; x2 = 0.3184) was 1.4879 ± 0.004, the refractive index ([1]; x2 = 0.4448) was 1.4709 ± 0.004 and the refractive index ([1]; x2 = 0.5541) was 1.459 ± 0.004. It also gave a refractive index ([1]; x2 = 0.6508) of 1.4441 ± 0.004, a refractive index ([1]; x2 = 0.736) of 1.4285 ± 0.004 and a refractive index ([1]; x2 = 0.8121) of 1.406 ± 0.004. The refractive index ([1]; x2 = 0.8816) was 1.3923 ± 0.004, the refractive index ([1]; x2 = 0.9434) was 1.3746 ± 0.004 and the refractive index ([1]; x2 = 0.9725) was 1.3678 ± 0.004.
In the case of `CC(C)=O` [acetone], the “vapor or sublimation pressure” value ([2]; 327.9 K) is reported as 96.15 ± 0.98 kPa and the refractive index [3] is reported as 1.3606 ± 0.004.
Molecule `COc1ccccc1` [anisole] + CC(=O)O has a refractive index ([1]; x2 = 0) of 1.5175 ± 0.004, a refractive index ([1]; x2 = 0.0875) of 1.5107 ± 0.004 and a refractive index ([1]; x2 = 0.167) of 1.503 ± 0.004. It also gave a refractive index ([1]; x2 = 0.3109) of 1.4878 ± 0.004, a refractive index ([1]; x2 = 0.4358) of 1.4731 ± 0.004 and a refractive index ([1]; x2 = 0.5453) of 1.4584 ± 0.004. It also gave a refractive index ([1]; x2 = 0.6416) of 1.4441 ± 0.004, a refractive index ([1]; x2 = 0.7302) of 1.4295 ± 0.004 and a refractive index ([1]; x2 = 0.8075) of 1.4155 ± 0.004. For the same molecule, the refractive index ([1]; x2 = 0.877) was 1.4018 ± 0.004, the refractive index ([1]; x2 = 0.9413) was 1.3874 ± 0.004 and the refractive index ([1]; x2 = 0.9711) was 1.3807 ± 0.004.
In the case of `CN(C)C=O` [dimethylformamide], the “vapor or sublimation pressure” value ([2]; 424.53 K) is reported as 96.15 ± 0.99 kPa, the “vapor or sublimation pressure” value ([2]; 424.6 K) is reported as 96.15 ± 0.99 kPa and the refractive index [3] is reported as 1.4318 ± 0.004.
With `Nc1ccccc1` [aniline] the “vapor or sublimation pressure” value ([2]; 455.4 K) was 96.15 ± 0.99 kPa and the refractive index [3] was 1.5868 ± 0.004.
With `COc1ccccc1` [anisole] + CC(C)O the refractive index ([1]; x2 = 0) was 1.5175 ± 0.004, the refractive index ([1]; x2 = 0.0879) was 1.5092 ± 0.004 and the refractive index ([1]; x2 = 0.1663) was 1.5011 ± 0.004. It also gave a refractive index ([1]; x2 = 0.3122) of 1.484 ± 0.004, a refractive index ([1]; x2 = 0.4359) of 1.4688 ± 0.004 and a refractive index ([1]; x2 = 0.5438) of 1.4543 ± 0.004. The refractive index ([1]; x2 = 0.6429) was 1.4403 ± 0.004, the refractive index ([1]; x2 = 0.7293) was 1.4272 ± 0.004 and the refractive index ([1]; x2 = 0.8063) was 1.4143 ± 0.004. The refractive index ([1]; x2 = 0.879) was 1.4019 ± 0.004, the refractive index ([1]; x2 = 0.9372) was 1.3911 ± 0.004 and the refractive index ([1]; x2 = 0.9693) was 1.3861 ± 0.004.
`CC(C)=O` [acetone] + COc1ccccc1 gave a refractive index ([1]; x1 = 1) of 1.3606 ± 0.004.
For `CC(C)O` [propan-2-ol], the “vapor or sublimation pressure” value ([2]; 354.17 K) was 96.15 ± 0.98 kPa and the refractive index [3] was 1.3758 ± 0.004.
In the case of `CC(=O)O` [acetic acid], the “vapor or sublimation pressure” value ([2]; 388.91 K) is reported as 96.15 ± 0.98 kPa and the refractive index [3] is reported as 1.3724 ± 0.004.
For `Nc1ccccc1` [aniline] + CN(C)C=O, the refractive index ([1]; x2 = 0) was 1.5868 ± 0.004, the refractive index ([1]; x2 = 0.0624) was 1.5795 ± 0.004 and the refractive index ([1]; x2 = 0.1252) was 1.5723 ± 0.004. It also gave a refractive index ([1]; x2 = 0.2423) of 1.5575 ± 0.004, a refractive index ([1]; x2 = 0.3527) of 1.543 ± 0.004 and a refractive index ([1]; x2 = 0.459) of 1.5267 ± 0.004. For the same molecule, the refractive index ([1]; x2 = 0.5592) was 1.5119 ± 0.004, the refractive index ([1]; x2 = 0.6561) was 1.4975 ± 0.004 and the refractive index ([1]; x2 = 0.7474) was 1.4799 ± 0.004. For the same molecule, the refractive index ([1]; x2 = 0.8363) was 1.4638 ± 0.004, the refractive index ([1]; x2 = 0.9206) was 1.4477 ± 0.004 and the refractive index ([1]; x2 = 0.9602) was 1.4401 ± 0.004.
`CC(=O)O` [acetic acid] + COc1ccccc1 showed a refractive index ([1]; x1 = 1) of 1.3724 ± 0.004.
For `COc1ccccc1` [anisole], the “vapor or sublimation pressure” value ([2]; 424.55 K) was 96.15 ± 0.99 kPa, the “vapor or sublimation pressure” value ([2]; 424.61 K) was 96.15 ± 0.99 kPa and the “vapor or sublimation pressure” value ([2]; 424.79 K) was 96.15 ± 0.99 kPa. It also gave a refractive index [3] of 1.5175 ± 0.004.
`CC(C)O` [propan-2-ol] + COc1ccccc1 gave a refractive index ([1]; x1 = 1) of 1.3758 ± 0.004.
